One experiment has as its target ER (Homo sapiens (Human), UniProt P03372). Briefly: In-cell western blot analysis of relative ER percentage (Compounds B1-B278). The note with it: ER degradation, 16 hours, read-out: ICW DC50. In kind it is cell-based. A digest of the protocol:
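In-cell western: after 16 h compound exposure (0.5% DMSO final), fixed and permeabilized cells are probed with anti-ER plus anti-GAPDH and near-infrared secondaries. Relative ER percentage compares treated wells against untreated and DMSO wells taken as 100%; seeding 40,000 or 10,000 cells/well.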

A short description of experiment [1]: Cell growth assay (WST-8) (Compounds B1-B278). The conditions noted are these: T47D cell line, WST-8, 4 days, read-out: Cell Growth Inhibition in T47D cell line IC50. In kind it is cell-based. A digest of the protocol: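 Read-out is WST-8 absorbance at 450 nm (2.5 h, 37° C) as a fraction of vehicle control, from three separate repeats. Compound exposure lasted 4 days, starting one day after plating 1500 cells/well.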

The values below come from patent US20260007681A1, “INDOLE DERIVATIVES AS ESTROGEN RECEPTOR DEGRADERS” (REGENTS OF THE UNIVERSITY OF MICHIGAN, priority 2022, published 2026).

Like-named read-outs stand apart in the source and are kept apart here. Where only a bound is given, the exact number is not on record here.

Chain of ER (P03372 whole entry): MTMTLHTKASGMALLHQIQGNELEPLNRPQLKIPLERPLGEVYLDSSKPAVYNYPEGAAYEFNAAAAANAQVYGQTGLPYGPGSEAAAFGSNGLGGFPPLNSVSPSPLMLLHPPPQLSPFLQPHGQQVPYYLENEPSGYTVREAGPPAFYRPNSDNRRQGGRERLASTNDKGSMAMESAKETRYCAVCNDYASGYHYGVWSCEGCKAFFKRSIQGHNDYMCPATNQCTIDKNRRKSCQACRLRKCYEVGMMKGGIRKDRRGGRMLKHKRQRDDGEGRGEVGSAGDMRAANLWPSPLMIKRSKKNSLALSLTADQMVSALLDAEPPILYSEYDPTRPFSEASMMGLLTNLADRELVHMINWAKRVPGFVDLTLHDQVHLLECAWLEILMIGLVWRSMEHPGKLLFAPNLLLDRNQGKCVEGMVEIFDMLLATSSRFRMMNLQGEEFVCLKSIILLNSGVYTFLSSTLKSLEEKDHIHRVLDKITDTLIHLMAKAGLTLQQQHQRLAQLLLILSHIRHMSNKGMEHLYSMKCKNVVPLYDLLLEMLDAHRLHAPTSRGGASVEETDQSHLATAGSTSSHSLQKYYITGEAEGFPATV

The DC50 is the concentration giving 50% degradation. As a reminder, the IC50 is the concentration that gives 50% inhibition. For `C[C@@H]1Cc2c([nH]c3ccccc23)[C@@H](c2cnc(N3CCC4(CC3)CC(CN3CCN5c6ccc7c(c6OC[C@H]5C3)CN(C3CCC(=O)NC3=O)C7=O)C4)nc2)N1CC(F)F` (stereo partly drawn) [Compound B181, 3-((R)-7-((7-(5-((1R,3R)-2-(2,2-difluoroethyl)-3-methyl-2,3,4,9-tetrahydro-1H-pyrido[3,4-b]indol-1-yl)pyrimidin-2-yl)-7-azaspiro[3.5]nonan-2-yl)methyl)-1-oxo-1,3,5,5a,6,7,8,9-octahydro-2H-pyrazino[1′,2′:4,5][1,4]oxazino[2,3-e]isoindol-2-yl)piperidine-2,6-dione], the DC50 on ER was under 10 nM. Also, the IC50 in experiment [1] (96 h) is under 1 nM.
The like results for `C[C@@H]1Cc2c([nH]c3ccccc23)[C@@H](c2cnc(N3CC4(CCC(CN5CCN6c7ccc8c(c7OC[C@H]6C5)CN(C5CCC(=O)NC5=O)C8=O)CC4)C3)nc2)N1CC(C)(C)F` (stereo partly drawn) [Compound B182, 3-((R)-7-((2-(5-((1R,3R)-2-(2-fluoro-2-methylpropyl)-3-methyl-2,3,4,9-tetrahydro-1H-pyrido[3,4-b]indol-1-yl)pyrimidin-2-yl)-2-azaspiro[3.5]nonan-7-yl)methyl)-1-oxo-1,3,5,5a,6,7,8,9-octahydro-2H-pyrazino[1′,2′:4,5][1,4]oxazino[2,3-e]isoindol-2-yl)piperidine-2,6-dione] were, in that order, under 10 nM and 1 to 10 nM.
As for `C[C@@H]1Cc2c([nH]c3ccccc23)[C@@H](c2cnc(N3CC4(CCC(CN5CCN6c7ccc8c(c7OC[C@H]6C5)CN(C5CCC(=O)NC5=O)C8=O)CC4)C3)nc2)N1CC(F)F` (stereo partly drawn) [Compound B183, 3-((R)-7-((2-(5-((1R,3R)-2-(2,2-difluoroethyl)-3-methyl-2,3,4,9-tetrahydro-1H-pyrido[3,4-b]indol-1-yl)pyrimidin-2-yl)-2-azaspiro[3.5]nonan-7-yl)methyl)-1-oxo-1,3,5,5a,6,7,8,9-octahydro-2H-pyrazino[1′,2′:4,5][1,4]oxazino[2,3-e]isoindol-2-yl)piperidine-2,6-dione], the DC50 on ER is under 10 nM. For the same molecule, in experiment [1] (96 h), the IC50 lay in the range of 1 to 10 nM.
For the molecule `C[C@@H]1Cc2c([nH]c3ccccc23)[C@@H](c2cnc(N3CCC(CN4CCN5c6ccc7c(c6OC[C@@H]5C4)CN(C4CCC(=O)NC4=O)C7=O)CC3)nc2)N1CC(C)(C)F` (stereo partly drawn) [Compound B258, 3-((S)-7-((1-(5-((1R,3R)-2-(2-fluoro-2-methylpropyl)-3-methyl-2,3,4,9-tetrahydro-1H-pyrido[3,4-b]indol-1-yl)pyrimidin-2-yl)piperidin-4-yl)methyl)-1-oxo-1,3,5,5a,6,7,8,9-octahydro-2H-pyrazino[1′,2′:4,5][1,4]oxazino[2,3-e]isoindol-2-yl)piperidine-2,6-dione], on ER, the DC50 is over 100 nM. Also, the IC50 in experiment [1] (96 h) is under 1 nM.
The like results for `C[C@@H]1Cc2c([nH]c3ccccc23)[C@@H](c2cnc(N3CC4(CCC(CN5CCN6c7ccc8c(c7OC[C@H]6C5)CN(C5CCC(=O)NC5=O)C8=O)CC4)C3)nc2)N1CC1(F)CC1` (stereo partly drawn) [Compound B260, 3-((R)-7-((2-(5-((1R,3R)-2-((1-fluorocyclopropyl)methyl)-3-methyl-2,3,4,9-tetrahydro-1H-pyrido[3,4-b]indol-1-yl)pyrimidin-2-yl)-2-azaspiro[3.5]nonan-7-yl)methyl)-1-oxo-1,3,5,5a,6,7,8,9-octahydro-2H-pyrazino[1′,2′:4,5][1,4]oxazino[2,3-e]isoindol-2-yl)piperidine-2,6-dione] were, in that order, 10 to 100 nM and 1 to 10 nM.
The like results for `C[C@@H]1Cc2c([nH]c3ccccc23)[C@@H](c2cnc(N3CCC4(CC3)CC(CN3CCN5c6ccc7c(c6OC[C@H]5C3)CN(C3CCC(=O)NC3=O)C7=O)C4)nc2)N1CC1(F)CC1` (stereo partly drawn) [Compound B261, 3-((R)-7-((7-(5-((1R,3R)-2-((1-fluorocyclopropyl)methyl)-3-methyl-2,3,4,9-tetrahydro-1H-pyrido[3,4-b]indol-1-yl)pyrimidin-2-yl)-7-azaspiro[3.5]nonan-2-yl)methyl)-1-oxo-1,3,5,5a,6,7,8,9-octahydro-2H-pyrazino[1′,2′:4,5][1,4]oxazino[2,3-e]isoindol-2-yl)piperidine-2,6-dione] were, in that order, 10 to 100 nM and 1 to 10 nM.
The like results for `C[C@@H]1Cc2c([nH]c3ccccc23)[C@@H](c2cnc(N3CCC4(CC3)CC(CN3CCC5(CC3)COc3c5ccc5c3CN(C3CCC(=O)NC3=O)C5=O)C4)nc2)N1CC(F)F` (stereo partly drawn) [Compound B262, 3-(1′-((7-(5-((1R,3R)-2-(2,2-difluoroethyl)-3-methyl-2,3,4,9-tetrahydro-1H-pyrido[3,4-b]indol-1-yl)pyrimidin-2-yl)-7-azaspiro[3.5]nonan-2-yl)methyl)-6-oxo-6,8-dihydro-2H,7H-spiro[furo[2,3-e]isoindole-3,4′-piperidin]-7-yl)piperidine-2,6-dione] were, in that order, 10 to 100 nM and under 1 nM.
`C[C@@H]1Cc2c([nH]c3ccccc23)[C@@H](c2cnc(N3CC4(CCC(CN5CCN6c7ccc8c(c7OC[C@@H]6C5)CN(C5CCC(=O)NC5=O)C8=O)CC4)C3)nc2)N1CC(F)F` (stereo partly drawn) [Compound B263, 3-((S)-7-((2-(5-((1R,3R)-2-(2,2-difluoroethyl)-3-methyl-2,3,4,9-tetrahydro-1H-pyrido[3,4-b]indol-1-yl)pyrimidin-2-yl)-2-azaspiro[3.5]nonan-7-yl)methyl)-1-oxo-1,3,5,5a,6,7,8,9-octahydro-2H-pyrazino[1′,2′:4,5][1,4]oxazino[2,3-e]isoindol-2-yl)piperidine-2,6-dione]: the DC50 at ER is 10 to 100 nM. The IC50 in experiment [1] (96 h) lay within 1 to 10 nM.
The like results for `C[C@@H]1Cc2c([nH]c3ccccc23)[C@@H](c2cnc(N3CCC4(CC3)CC(CN3CCN5c6ccc7c(c6OC[C@@H]5C3)CN(C3CCC(=O)NC3=O)C7=O)C4)nc2)N1CC(F)F` (stereo partly drawn) [Compound B264, 3-((S)-7-((7-(5-((1R,3R)-2-(2,2-difluoroethyl)-3-methyl-2,3,4,9-tetrahydro-1H-pyrido[3,4-b]indol-1-yl)pyrimidin-2-yl)-7-azaspiro[3.5]nonan-2-yl)methyl)-1-oxo-1,3,5,5a,6,7,8,9-octahydro-2H-pyrazino[1′,2′:4,5][1,4]oxazino[2,3-e]isoindol-2-yl)piperidine-2,6-dione] were, in that order, 10 to 100 nM and 1 to 10 nM.
The like results for `C[C@@H]1Cc2c([nH]c3ccccc23)[C@@H](c2c(F)cc(N3CCC4(CC3)CC(CN3CCN5c6ccc7c(c6OC[C@H]5C3)CN(C3CCC(=O)NC3=O)C7=O)CO4)cc2F)N1CC(F)(F)CO` (stereo partly drawn) [Compound B266, 3-((5aR)-7-((8-(4-((1R,3R)-2-(2,2-difluoro-3-hydroxypropyl)-3-methyl-2,3,4,9-tetrahydro-1H-pyrido[3,4-b]indol-1-yl)-3,5-difluorophenyl)-1-oxa-8-azaspiro[4.5]decan-3-yl)methyl)-1-oxo-1,3,5,5a,6,7,8,9-octahydro-2H-pyrazino[1′,2′:4,5][1,4]oxazino[2,3-e]isoindol-2-yl)piperidine-2,6-dione] were, in that order, 10 to 100 nM and 1 to 10 nM.
The like results for `C[C@@H]1CC2c3ccccc3NC2[C@@H](c2c(F)cc(N3CCC4(CC3)CC(CN3CCN5c6cc7c(cc6OC[C@H]5C3)C(=O)N(C3CCC(=O)NC3=O)C7)CO4)cc2F)N1CC(F)(F)CO` (stereo partly drawn) [Compound B267, 3-((4aR)-3-((8-(4-((1R,3R)-2-(2,2-difluoro-3-hydroxypropyl)-3-methyl-2,3,4,4a,9,9a-hexahydro-1H-pyrido[3,4-b]indol-1-yl)-3,5-difluorophenyl)-1-oxa-8-azaspiro[4.5]decan-3-yl)methyl)-8-oxo-1,2,3,4,4a,5,8,10-octahydro-9H-pyrazino[1′,2′:4,5][1,4]oxazino[2,3-f]isoindol-9-yl)piperidine-2,6-dione] were, in that order, over 100 nM and over 10 nM.
Regarding `C[C@@H]1Cc2c([nH]c3ccccc23)[C@@H](c2ccc(N3CCC4(CC3)CC(CN3CCN5c6ccc7c(c6OC[C@H]5C3)CN(C3CCC(=O)NC3=O)C7=O)CO4)cn2)N1CC(F)(F)F` (stereo partly drawn) [Compound B268, (3S)-3-((5aR)-7-((8-(6-((1S,3R)-3-methyl-2-(2,2,2-trifluoroethyl)-2,3,4,9-tetrahydro-1H-pyrido[3,4-b]indol-1-yl)pyridin-3-yl)-1-oxa-8-azaspiro[4.5]dccan-3-yl)methyl)-1-oxo-1,3,5,5a,6,7,8,9-octahydro-2H-pyrazino[1′,2′:4,5][1,4]oxazino[2,3-e]isoindol-2-yl)piperidine-2,6-dione], the DC50 on ER lay in the range of 10 to 100 nM. Moreover, the 50% inhibitory concentration (IC50) in experiment [1] (96 h) lay within 1 to 10 nM.
Take `C[C@@H]1Cc2c([nH]c3ccccc23)[C@@H](c2ccc(N3CCC4(CC3)CC(CN3CCN5c6cc7c(cc6OC[C@@H]5C3)C(=O)N(C3CCC(=O)NC3=O)C7)CO4)cn2)N1CC(F)(F)F` (stereo partly drawn) [Compound B269, 3-((4aS)-3-((8-(6-((1S,3R)-3-methyl-2-(2,2,2-trifluoroethyl)-2,3,4,9-tetrahydro-1H-pyrido[3,4-b]indol-1-yl)pyridin-3-yl)-1-oxa-8-azaspiro[4.5]decan-3-yl)methyl)-8-oxo-1,2,3,4,4a,5,8,10-octahydro-9H-pyrazino[1′,2′:4,5][1,4]oxazino[2,3-f]isoindol-9-yl)piperidine-2,6-dione]: at ER, the DC50 lay within 10 to 100 nM. The IC50 in experiment [1] lay within 1 to 10 nM.
